Values of other authors as cited in US20240181106A1, “WATER-SOLUBLE PHOTOSENSITIVE COMPOSITION OF PHOTODYNAMIC ENVIRONMENTAL DISINFECTION AND METHOD OF ENVIRONMENTAL DISINFECTION BY USING THE SAME” (NATIONAL CHENG KUNG UNIVERSITY, priority 2022, published 2024).

CN(C)c1ccc2nc3ccc(=[N+](C)C)cc-3sc2c1 [methylene blue]
safe single dose (60 kg-weight adult, every 4 hours): 120 mg
daily dose not to be exceeded (human): ≤ 7 mg/kg daily
maximum safe dose administered to a human (human): 2 mg/kg/single dose
